Measured values taken from patent publication US20240226083A9, “MEDICAMENT FOR TREATMENT AND/OR PROPHYLACTIC TREATMENT OF CANCERS” (Belina Pharma AB, priority 2019, published 2024).

Assays:
breast cancer [1] = conditions: earlier filing, in words; cited from earlier work
breast cancer [2] = assay: Swedish nation-wide register study, cancer specific survival of antihistamine users vs non-users: breast cancer; format: in vivo, human; conditions: in words
Experimental: (§1) Both peri- and post-diagnostic antihistamine use was analyzed, using Cox regression models, as well as different subgroups of patients with regard to age, gender (as a proxy for sex) and tumor status.
(§2) Material and methods Linking the Cancer Registry with the Drug Prescription Registry and Cause of Death Registry the survival of over 500 000 cancer patients with cancer in the breast-, prostate, ventrikel, pancreas, kidney, colo-rectal, lung, uterus, ovary, brain, melanoma, lymph gland and bone marrow was studied between 2005-2014.
Use of the six major antihistamines was established using the Swedish Prescribed Drug Register, a record of all dispensed prescribed pharmaceuticals in Sweden since July 1st 2005. To be included in the registry at least 2 weeks of prescription is required. […] Causes of death were obtained from the Swedish Cause of Death Register, a database where all deaths have been recorded since 1952. […]
We analyzed both the peri- and cumulative post-diagnostic use of antihistamines among melanoma patients. […]
(§3) For the cumulative post-diagnostic antihistamine use analysis, mortality rates for antihistamine users were compared to those of non-users through a Cox regression model allowing for time varying covariates, and survival time was measured in years since diagnosis. […] The impact of the cumulative DDDs was assessed after log transformation of the DDDs plus one3. […]

all tumour types = assay: Swedish nation-wide register study, cancer specific survival of antihistamine users vs non-users: across tumour types; format: in vivo, human; conditions: for effect of use on survival, all tumour types: users vs non-users, in words
Experimental: as §1, §2
(§4) Use of the six major antihistamines was established using the Swedish Prescribed Drug Register, a record of all dispensed prescribed pharmaceuticals in Sweden since July 1st 2005. To be included in the registry at least 2 weeks of prescription is required. Prescription free antihistamine use, non-dispensed doses, or use of other, less common, types of antihistamines is here considered non-use. Causes of death were obtained from the Swedish Cause of Death Register, a database where all deaths have been recorded since 1952. Data was pseudo-anonymized and the study was approved by the Regional Ethics Board.
(§5) We analyzed both the peri- and cumulative post-diagnostic use of antihistamines among […]. Peri-diagnostic use was a proxy for ever-use, and is here defined as use within six months pre-diagnosis and six months post-diagnosis, where the main antihistamine (in terms of dispensed defined daily doses, or DDDs) used by each individual during this time was identified. The analysis was done using a Cox regression model with time to even or censoring in years as a time scale. Subgroup analyses were made for groups based on age and gender (as a proxy for sex).
(§6) For the cumulative post-diagnostic antihistamine use analysis, mortality rates for antihistamine users were compared to those of non-users through a Cox regression model allowing for time varying covariates, and survival time was measured in years since diagnosis. This allowed for a single individual to provide data as both a non-user and user of different antihistamines. The impact of the cumulative DDDs was assessed after log transformation of the DDDs plus one3. Cox regression analyses were stratified for patient age at diagnosis, tumor size and node status (T and N status, respectively). A lag-time analysis was performed as described by Tamim et al. and Richardson et al. Statistical analyses were performed using R version XXX6.
(§7) Information on stage, socio-economic factors, tumour therapies, and prognostic tumour factors are not present in the national registries.
(§8) The confidence interval (95% CI) indicates the level of uncertainty around the measure of effect. A 95% confidence interval means that the confidence interval covers the true value in 95 of 100 studies performed. […]

[3] = test system: patients with ovarian cancer; assay: Swedish nation-wide register study, cancer specific survival of antihistamine users vs non-users: ovarian cancer; format: in vivo, human; conditions: for effect of use on ovarian cancer survival: users vs non-users, in words
Experimental: as §1, §2, §4, §5, §6, §7, §8

[4] = test system: patients with gastric cancer; assay: Swedish nation-wide register study, cancer specific survival of antihistamine users vs non-users: gastric cancer; format: in vivo, human; conditions: for effect of use on gastric cancer survival: users vs non-users, in words
Experimental: as §1, §2, §4, §5, §3

[5] = test system: patients with pancreatic cancer; assay: Swedish nation-wide register study, cancer specific survival of antihistamine users vs non-users: pancreatic cancer; format: in vivo, human; conditions: for effect of use on pancreatic cancer survival: users vs non-users, in words
Experimental: as §1, §2, §4, §5, §3

[6] = test system: patients with uterus cancer; assay: Swedish nation-wide register study, cancer specific survival of antihistamine users vs non-users: uterine cancer; format: in vivo, human; conditions: in words
[7] = test system: patients with prostate cancer; assay: Swedish nation-wide register study, cancer specific survival of antihistamine users vs non-users: prostate cancer; format: in vivo, human; conditions: in words
Experimental: (§9) For the cumulative post-diagnostic antihistamine use analysis, mortality rates for antihistamine users were compared to those of non-users through a Cox regression model allowing for time varying covariates, and survival time was measured in years since diagnosis. This allowed for a single individual to provide data as both a non-user and user of different antihistamines. The impact of the cumulative DDDs was assessed after log transformation of the DDDs plus one3. Cox regression analyses were stratified for patient age at diagnosis, tumor size and node status (T and N status, respectively). […]

[8] = test system: patients with Hodgkin's disease; assay: Swedish nation-wide register study, cancer specific survival of antihistamine users vs non-users: Hodgkin's disease; format: in vivo, human
[9] = test system: patients with colo-rectal cancer; assay: Swedish nation-wide register study, cancer specific survival of antihistamine users vs non-users: colorectal cancer; format: in vivo, human
[10] = test system: patients with lung cancer; assay: Swedish nation-wide register study, cancer specific survival of antihistamine users vs non-users: lung cancer; format: in vivo, human
[11] = test system: patients with brain cancer; assay: Swedish nation-wide register study, cancer specific survival of antihistamine users vs non-users: brain cancer; format: in vivo, human; conditions: in words
[12] = test system: lympho-hematopoetic malignancies; assay: Swedish nation-wide register study, cancer specific survival of antihistamine users vs non-users: lympho-hematopoetic malignancies; format: in vivo, human; conditions: in words
Experimental: as §9

CC(C)(C)c1ccc(C(=O)CCCN2CCC(OC(c3ccccc3)c3ccccc3)CC2)cc1 [Ebastine, ebastine]
effect on breast cancer survival (WO 2016/116438) (breast cancer [1]): positive effect
effect of use on breast cancer survival (breast cancer [2]): increased breast cancer survival

CC(C)(C(=O)O)c1ccc(C(O)CCCN2CCC(C(O)(c3ccccc3)c3ccccc3)CC2)cc1 (stereo not shown) [fexofenadine]
effect of use on survival, all tumour types (all tumour types): insignificant

CCOC(=O)N1CCC(=C2c3ccc(Cl)cc3CCc3cccnc32)CC1 [loratadine]
course of survival curves relative to non-users (all tumour types; FIGS. 7 to 18, in words): most survival curves became parallel to non-users suggesting a long time curative effect
effect of use on ovarian cancer survival [3]: survival was better

O=C(O)COCCN1CCN(C(c2ccccc2)c2ccc(Cl)cc2)CC1 (stereo not shown) [Ceterizine, cetirizine]
effect of use on gastric cancer survival [4]: better survival
effect of use on ovarian cancer survival [3]: better survival
effect of use on pancreatic cancer survival [5]: better survival

CN1CCC[C@@H]1CCO[C@](C)(c1ccccc1)c1ccc(Cl)cc1 [Clemastine, clemastine]
effect of use on survival, all tumour types (all tumour types): consistently showed a worse survival

Clc1ccc2c(c1)CCc1cccnc1C2=C1CCNCC1 [desloratadine]
effect of use on uterine cancer survival [6]: no effect
effect on breast cancer survival (WO 2016/116438) (breast cancer [1]): positive effect
5 year survival chance increased by (gastric cancer) ([4]; gastric cancer, baseline 5 year survival 25% 2016, FIG. 1): 30%
effect of use on gastric cancer survival [4]: consistently beneficial effect
effect of use on prostate cancer survival [7]: consistently beneficial effect
5 year survival chance increased by (Hodgkin's disease) ([8]; Hodgkin's disease, baseline 5 year survival about 86% 2016, FIG. 1): 17%
effect of use on Hodgkin's disease survival ([8]; users vs non-users, in words): strong survival benefit
curative effect suggested by survival curves (all tumour types; said cancers, survival curves with follow up parallel to non-treated, FIGS. 7 to 18): 10-20%
5 year survival chance increased by (ovarian cancer) ([3]; ovarian cancer, baseline 5 year survival about 55% 2016, FIG. 1): 17%
effect of use on ovarian cancer survival [3]: consistently beneficial effect
5 year survival chance increased by (colorectal cancer) ([9]; colorectal cancer, baseline 5 year survival about 65% 2016, FIG. 1): 15%
effect of use on colorectal cancer survival ([9]; users vs non-users, in words): consistently beneficial effect
5 year survival chance increased by (lung cancer) ([10]; lung cancer, baseline 5 year survival about 20% 2016, FIG. 1): 15%
effect of use on lung cancer survival ([10]; users vs non-users, in words): consistently beneficial effect
effect of use on brain cancer survival [11]: no effect
effect of use on breast cancer survival (breast cancer [2]): consistently beneficial effect
5 year survival chance increased by (pancreatic cancer) ([5]; pancreatic cancer, baseline 5 year survival about 8% 2016, FIG. 1): 35%
effect of use on pancreatic cancer survival [5]: consistently beneficial effect
effect of use on survival in lympho-hematopoetic malignancies [12]: no effect
